Biological target: T1, Human AMPK α2β2γ1 (Homo sapiens, UniProt O43741+P54646)
T1 construct: The full length cDNAs of human AMPK β2 (NM_005399.3) and human AMPK α2 (NM_006252.3); The full length cDNAs of human AMPK β2 (NM_005399.3); the full length cDNA of human AMPK γ1 (NM_002733.3) had been inserted into pET28b(+); 6xHis (N); made in house; host or cells: Escherichia coli BL21 CodonPlus (DE3)-RTL (AMPK); BL21 Star (DE3) (CaMKKβ)
Assay: Test Example 2: evaluation of an activator for AMP-activated protein kinase (AMPK), human AMPK α2β2γ1 phosphorylated with CaMKK2, FL-Peptide 7 mobility shift
Type: biochemical
Settings: for EC150 (compound concentration showing 150% relative to the control (100%)): human AMPK α2β2γ1, 0.2 mM ATP final, 25° C., 2 hours; for Emax: read-out: Emax (maximum rate of increase in activity within the measurement range)
Description: The full length cDNAs of human AMPK β2 (NM_005399.3) and human AMPK α2 (NM_006252.3) were inserted into the MCS1 and MCS2 of the pETDuet-1 vector to prepare a human AMPK β2 and human AMPK α2 (6× His tag at the 5′ terminus) expressing plasmid. The plasmid was cotransfected with an expression plasmid, in which the full length cDNA of human AMPK γ1 (NM_002733.3) had been inserted into pET28b(+), into BL21 CodonPlus (DE3)-RTL to obtain an expression strain. The expression strain was cultured in TB medium, followed by induction with 0.5 mM IPTG, and cultured at 25° C. for 3 hours and then harvested.
An expression vector, in which the full length cDNA of human CAMKK β (NM_172226.1) had been inserted into pGEX-6P-3, was transfected into BL21 Star (DE3). The expression strain was cultured in TB medium, followed by induction with 0.5 mM IPTG, and cultured at 25° C. for 3 hours and then harvested.
Thus, phosphorylation treatment was carried out as pretreatment.
Human AMPK α2β2γ1 in an amount to give a conversion rate of approximately 10% by reaction for 2 hours, and CaMKK2 in an amount capable of sufficiently imparting activity to AMPK for one hour were mixed in a buffer solution consisting of a 50 mM HEPES-NaOH buffer solution (pH 7.0), 100 mM NaCl, 5 mM magnesium chloride, 0.1% bovine serum albumin, 0.2 mM sodium orthovanadate(V), 1 mM ethylene glycol-bis(2-aminoethyl ether)-N,N,N′,N′-tetraacetic acid (EGTA), 5 mM disodium β-glycerophosphate, 1 mM dithiothreitol and 0.2 mM ATP, and the obtained liquid was left to stand at 25° C. for 1 to 1.5 hours to sufficiently phosphorylate AMPK.
The obtained liquid was left to stand for 10 minutes.
The obtained liquid was allowed to react at 25° C. for 2 hours, and 10 μl of 20 mM EDTA was then added thereto to stop the reaction.
To detect phosphorylated fluorescent substrates, the reaction liquid was applied to a measuring device, LabChip EZ Reader II manufactured by Caliper Life Science, Inc., for detecting fluorescence by using differences in mobility due to differences in charge. The setting conditions for the device were pressure, −1.5 PSI; upstream voltage, −2250 V; downstream voltage, −400 V; post sample buffer sip time, 40 seconds; final delay, 120 seconds; and peak order, Product First.
A conversion rate was calculated from the peak heights of the resulting substrate and product. The conversion rate when not containing a compound was used as a control, and a concentration dependent curve was made by plotting the rate of increase in activity to the control at each concentration of a compound.

[1] = human AMPK α2β2γ1, relative to control (100%)

T1 sequence (P54646 whole entry): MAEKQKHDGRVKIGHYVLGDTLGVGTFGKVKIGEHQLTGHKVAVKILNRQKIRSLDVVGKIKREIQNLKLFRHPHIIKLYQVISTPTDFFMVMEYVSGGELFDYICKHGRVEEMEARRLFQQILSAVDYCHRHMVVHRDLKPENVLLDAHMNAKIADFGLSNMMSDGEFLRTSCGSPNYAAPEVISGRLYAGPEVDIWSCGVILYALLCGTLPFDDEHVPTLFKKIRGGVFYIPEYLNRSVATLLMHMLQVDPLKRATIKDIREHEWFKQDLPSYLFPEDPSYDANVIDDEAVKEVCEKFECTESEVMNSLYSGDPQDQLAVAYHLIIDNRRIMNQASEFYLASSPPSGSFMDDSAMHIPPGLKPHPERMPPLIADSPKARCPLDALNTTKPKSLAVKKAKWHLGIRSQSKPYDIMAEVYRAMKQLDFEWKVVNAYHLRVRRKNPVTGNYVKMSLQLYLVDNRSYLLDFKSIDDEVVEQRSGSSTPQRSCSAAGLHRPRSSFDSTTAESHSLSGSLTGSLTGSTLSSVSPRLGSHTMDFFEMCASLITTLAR
T1 sequence (O43741 whole entry): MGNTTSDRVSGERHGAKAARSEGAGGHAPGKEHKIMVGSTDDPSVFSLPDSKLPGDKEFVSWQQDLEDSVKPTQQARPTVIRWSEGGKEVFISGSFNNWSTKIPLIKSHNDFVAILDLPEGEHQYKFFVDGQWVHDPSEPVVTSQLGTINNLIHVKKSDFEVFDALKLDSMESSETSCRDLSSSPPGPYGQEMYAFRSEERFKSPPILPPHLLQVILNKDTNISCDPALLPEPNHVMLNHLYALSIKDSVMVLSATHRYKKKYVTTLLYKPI
T1 sequence (P54619 whole entry partner): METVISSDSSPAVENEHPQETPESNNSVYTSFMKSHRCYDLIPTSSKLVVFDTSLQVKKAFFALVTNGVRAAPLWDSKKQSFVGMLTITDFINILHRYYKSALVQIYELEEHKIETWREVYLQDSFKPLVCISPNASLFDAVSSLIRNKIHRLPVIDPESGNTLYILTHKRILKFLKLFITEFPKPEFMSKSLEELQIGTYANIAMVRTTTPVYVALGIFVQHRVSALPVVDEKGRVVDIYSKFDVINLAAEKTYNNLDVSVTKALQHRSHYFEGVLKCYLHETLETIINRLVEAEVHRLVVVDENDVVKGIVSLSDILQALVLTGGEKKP

Row | SMILES | EC150 (compound concentration showing 150% relative to the control (100%)) [nM] | Emax [1] [%] | Emax (maximum rate of increase in activity within the measurement range) [1] [%]
1 | N#Cc1cc2[nH]c(O[C@@H]3CO[C@H]4[C@@H]3OC[C@H]4O)cc2nc1-c1ccc(C2=CCOCC2)cc1 [Compound I-2-19] | 1.6 | 916 | 
2 | Cn1ccc2cc(-c3nc4c(C#N)c(O[C@@H]5CO[C@H]6[C@@H]5OC[C@H]6O)[nH]c4cc3Cl)ccc21 [Compound I-2-28] | 57 | 446 | 
3 | O=C(CO)N1CC=C(c2ccc(-c3nc4cc(O[C@@H]5CO[C@H](CO)C5)[nH]c4cc3F)cc2)CC1 [Compound I-2-33] | 2.5 | 511 | 
4 | O[C@@H]1CO[C@H]2[C@@H]1OC[C@H]2Oc1cc2nc(-c3ccc(C4(O)CCC4)cc3)c(F)cc2[nH]1 [Compound I-2-34] | 20 | 495 | 
5 | N#Cc1cc2[nH]c(O[C@@H]3CO[C@H]4[C@@H]3OC[C@H]4O)cc2nc1-c1ccc(N2CCOCC2)cc1F [Compound I-2-42] | 48 | 481 | 
6 | N#Cc1cc2[nH]c(O[C@@H]3CO[C@H]4[C@@H]3OC[C@H]4O)cc2nc1-c1ccc(-c2ccccc2)cc1 [Compound I-2-45] | 19 | 492 | 
7 | N#Cc1c(O[C@@H]2CO[C@H]3[C@@H]2OC[C@H]3O)[nH]c2cc(Cl)c(-c3ccc(-c4cnn(CCO)c4)cc3)nc12 [Compound I-2-46] | 77 | 510 | 
8 | O[C@@H]1CO[C@H]2[C@@H]1OC[C@H]2Oc1cc2nc(-c3ccc(C4CCCCO4)cc3)c(F)cc2[nH]1 (some centres unmarked) [Compound I-2-57] | 10 | 484 | 
9 | O[C@@H]1CO[C@H]2[C@@H]1OC[C@H]2Oc1cc2nc(-c3ccc([C@@H]4C[C@@H](O)[C@@H](O)CO4)cc3)c(Cl)cc2[nH]1 [Compound I-2-61-a] | 6.4 | 442 | 
10 | O[C@@H]1CO[C@H]2[C@@H]1OC[C@H]2Oc1cc2nc(-c3ccc([C@H]4C[C@H](O)[C@H](O)CO4)cc3)c(F)cc2[nH]1 [Compound I-2-61-b] | 6.4 | 442 | 
11 | O[C@@H]1CO[C@H]2[C@@H]1OC[C@H]2Oc1cc2nc(-c3ccc(C4CCCO4)cc3)c(F)cc2[nH]1 (some centres unmarked) [Compound I-2-68] | 26 | 382 | 
12 | Cn1ncc2cc(-c3nc4cc(O[C@@H]5CO[C@H]6[C@@H]5OC[C@H]6O)[nH]c4cc3F)ccc21 [Compound I-2-69] | 58 | 521 | 
13 | Cn1c(-c2nc3cc(O[C@@H]4CO[C@H]5[C@@H]4OC[C@H]5O)[nH]c3cc2F)cc2ccccc21 [Compound I-2-70] | 38 | 511 | 
14 | COc1ccc(-c2nc3cc(O[C@@H]4CO[C@H]5[C@@H]4OC[C@H]5O)[nH]c3cc2F)cc1 [Compound I-2-71] | 89 | 446 | 
15 | COc1nc(N2CC[C@@H](O)C2)ccc1-c1nc2cc(O[C@@H]3CO[C@H]4[C@@H]3OC[C@H]4O)[nH]c2cc1F [Compound I-2-78] | 7.1 | 490 | 
16 | CS(=O)(=O)N1C2C=C(c3ccc(-c4nc5cc(O[C@@H]6CO[C@H]7[C@@H]6OC[C@H]7O)[nH]c5cc4F)cc3)CC1CC2 (some centres unmarked) [Compound I-3-4] | 30 |  | 568
